2 compounds from ChEMBL document CHEMBL2074075, “Functional assay of multidrug resistant cells using JC-1, a carbocyanine fluorescent probe” (Leukemia, 1997) can be followed below.

Structures are written as SMILES.

Data set [1] concerns the target T1, ATP-dependent translocase ABCB1 (Homo sapiens, UniProt P08183). Kind of data set: TP_TRANSPORTER: inhibition of JC-1 uptake (JC-1: ca 0.1 uM, S9788: 5 uM) in K562 and K562/ADR cells, flow cytometry. Format: functional, cell-based.
The target in data set [2] is T1, ATP-dependent translocase ABCB1. Kind of data set: TP_TRANSPORTER: spectrofluorimetric analysis (intracellular accumulation) in K562 and K562/ADR cells. It is filed as functional, cell-based.

T1 sequence (P08183 whole entry): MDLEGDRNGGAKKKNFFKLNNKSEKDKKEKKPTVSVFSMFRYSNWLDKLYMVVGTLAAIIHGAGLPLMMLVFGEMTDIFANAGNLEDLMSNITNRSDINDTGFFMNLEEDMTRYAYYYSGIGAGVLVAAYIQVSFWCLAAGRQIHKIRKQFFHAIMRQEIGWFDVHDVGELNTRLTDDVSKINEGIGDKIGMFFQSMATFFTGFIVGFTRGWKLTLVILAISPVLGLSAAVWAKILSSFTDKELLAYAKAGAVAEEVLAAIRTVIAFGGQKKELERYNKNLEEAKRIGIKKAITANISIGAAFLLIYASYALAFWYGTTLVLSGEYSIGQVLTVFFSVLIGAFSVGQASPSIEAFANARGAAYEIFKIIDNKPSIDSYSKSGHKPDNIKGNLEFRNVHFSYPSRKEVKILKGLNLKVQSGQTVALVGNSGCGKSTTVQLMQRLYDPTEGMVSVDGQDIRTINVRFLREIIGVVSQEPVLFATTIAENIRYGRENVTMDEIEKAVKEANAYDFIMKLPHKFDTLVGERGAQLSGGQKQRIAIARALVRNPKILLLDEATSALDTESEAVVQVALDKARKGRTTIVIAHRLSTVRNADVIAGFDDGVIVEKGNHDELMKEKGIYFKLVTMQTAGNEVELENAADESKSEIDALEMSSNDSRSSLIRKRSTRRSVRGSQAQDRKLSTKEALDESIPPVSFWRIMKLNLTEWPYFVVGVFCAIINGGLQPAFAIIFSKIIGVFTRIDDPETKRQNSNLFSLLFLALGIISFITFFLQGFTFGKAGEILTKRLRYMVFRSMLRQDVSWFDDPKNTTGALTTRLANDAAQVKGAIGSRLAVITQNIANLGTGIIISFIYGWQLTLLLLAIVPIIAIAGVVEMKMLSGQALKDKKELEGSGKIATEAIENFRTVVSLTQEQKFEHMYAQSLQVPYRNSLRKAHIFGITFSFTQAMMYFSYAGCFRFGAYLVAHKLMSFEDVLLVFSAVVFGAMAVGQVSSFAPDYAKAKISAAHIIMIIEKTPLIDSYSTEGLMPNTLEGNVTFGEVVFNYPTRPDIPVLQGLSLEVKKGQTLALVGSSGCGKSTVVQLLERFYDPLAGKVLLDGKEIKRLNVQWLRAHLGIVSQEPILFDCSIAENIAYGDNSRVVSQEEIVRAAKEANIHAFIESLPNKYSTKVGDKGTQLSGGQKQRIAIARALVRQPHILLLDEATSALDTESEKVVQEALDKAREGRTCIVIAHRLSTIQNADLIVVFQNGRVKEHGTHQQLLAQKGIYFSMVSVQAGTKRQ

`C=CCNc1nc(NCC=C)nc(N2CCC(NCC(c3ccc(F)cc3)c3ccc(F)cc3)CC2)n1`: the Activity entry in data set [1] was “inhibitor [+]”.

For the compound `CCN1C(=C/C=C/c2n(CC)c3cc(Cl)c(Cl)cc3[n+]2CC)N(CC)c2cc(Cl)c(Cl)cc21.[I-]`, the Activity result in data set [2] is “substrate [+]”.
